Test results taken from patent US20250059198A1, “BRM DEGRADING COMPOUNDS AND ASSOCIATED METHODS OF USE” (Arvinas Operations, Inc., priority 2021, published 2025).

Target: T1, BRM (Homo sapiens, UniProt P51531)
T1 construct: Western Blot Screen of BRM Degradation in SW1573 Cells; endogenous in cells; host or cells: SW1573 cells
Assay: BRM degradation (Dmax and DC50) in SW1573 cells, Western blot screen / In-Cell Western screen
Type: cell-based
Details: overnight (18-20 hours) treatment; for Dmax: read-out: Dmax (%)** (% degraded)
In short: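 Dmax and DC50 were derived from BRM levels normalised to an alpha-tubulin control, measured by chemiluminescent Western blotting of lysates or by PFA-fixed In-Cell Western on LI-COR Odyssey. SW1573 cells received compound overnight (18–20 h, 0.1% DMSO final).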

T1 sequence (P51531 whole entry): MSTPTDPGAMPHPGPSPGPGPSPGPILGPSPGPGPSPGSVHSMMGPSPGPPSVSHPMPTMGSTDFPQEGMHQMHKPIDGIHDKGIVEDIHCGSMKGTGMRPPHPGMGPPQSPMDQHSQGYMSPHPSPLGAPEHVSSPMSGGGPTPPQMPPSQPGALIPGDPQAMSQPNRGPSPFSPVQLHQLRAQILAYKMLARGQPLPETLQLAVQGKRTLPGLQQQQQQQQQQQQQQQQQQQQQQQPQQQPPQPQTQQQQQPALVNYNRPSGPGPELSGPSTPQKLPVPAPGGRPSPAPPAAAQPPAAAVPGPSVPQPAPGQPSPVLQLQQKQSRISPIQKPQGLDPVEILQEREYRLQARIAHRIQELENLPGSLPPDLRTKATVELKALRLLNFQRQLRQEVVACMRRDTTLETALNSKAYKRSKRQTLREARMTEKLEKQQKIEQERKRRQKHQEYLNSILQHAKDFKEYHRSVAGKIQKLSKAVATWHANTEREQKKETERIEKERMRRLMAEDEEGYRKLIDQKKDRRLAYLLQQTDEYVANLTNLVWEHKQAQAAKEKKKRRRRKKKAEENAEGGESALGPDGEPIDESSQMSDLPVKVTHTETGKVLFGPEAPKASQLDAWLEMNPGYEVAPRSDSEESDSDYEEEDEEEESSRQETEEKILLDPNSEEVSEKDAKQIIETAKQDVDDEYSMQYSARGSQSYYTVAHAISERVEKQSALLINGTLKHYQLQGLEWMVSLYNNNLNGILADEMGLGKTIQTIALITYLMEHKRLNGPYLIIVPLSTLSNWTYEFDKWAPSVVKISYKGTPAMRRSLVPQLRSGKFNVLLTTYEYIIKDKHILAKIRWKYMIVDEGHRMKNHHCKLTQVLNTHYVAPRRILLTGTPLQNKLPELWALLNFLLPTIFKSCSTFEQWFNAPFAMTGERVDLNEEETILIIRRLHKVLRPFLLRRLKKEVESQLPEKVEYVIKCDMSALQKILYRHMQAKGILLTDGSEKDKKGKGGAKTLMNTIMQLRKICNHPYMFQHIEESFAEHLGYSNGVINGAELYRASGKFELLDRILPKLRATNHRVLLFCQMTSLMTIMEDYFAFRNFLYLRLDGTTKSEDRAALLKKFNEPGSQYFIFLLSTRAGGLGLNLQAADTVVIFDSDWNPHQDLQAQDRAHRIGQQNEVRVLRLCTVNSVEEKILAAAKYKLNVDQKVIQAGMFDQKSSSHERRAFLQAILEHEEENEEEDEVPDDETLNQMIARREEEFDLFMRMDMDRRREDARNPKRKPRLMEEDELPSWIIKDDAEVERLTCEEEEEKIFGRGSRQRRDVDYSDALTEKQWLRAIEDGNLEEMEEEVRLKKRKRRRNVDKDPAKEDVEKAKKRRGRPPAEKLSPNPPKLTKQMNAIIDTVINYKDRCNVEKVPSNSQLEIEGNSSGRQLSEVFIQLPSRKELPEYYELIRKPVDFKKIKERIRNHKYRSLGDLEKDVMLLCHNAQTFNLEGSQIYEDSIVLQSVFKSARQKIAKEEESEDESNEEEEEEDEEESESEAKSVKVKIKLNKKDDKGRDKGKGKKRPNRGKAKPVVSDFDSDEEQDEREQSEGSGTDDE

Row | SMILES | DC50 [nM] | Dmax [%]
1 | Cc1ncsc1-c1ccc([C@H](C)NC(=O)[C@@H]2C[C@@H](O)CN2C(=O)C(c2cc(N3CCC(OC(=O)N4CCC(O[C@H]5C[C@H](Oc6cc(N7CCN(c8cc(-c9ccccc9O)nnc8N)CC7)ccn6)C5)CC4)CC3)no2)C(C)C)cc1 (stereo partly drawn) [Compound 145, 1-(5-{1-[(2S,4R)-4-hydroxy-2-{[(1S)-1-[4-(4-methyl-1,3-thiazol-5-yl)phenyl]ethyl]carbamoyl}pyrrolidin-1-yl]-3-methyl-1-oxobutan-2-yl}-1,2-oxazol-3-yl)piperidin-4-yl 4-[(1r,3r)-3-[(4-{4-[3-amino-6-(2-hydroxyphenyl)pyridazin-4-yl]piperazin-1-yl}pyridin-2-yl)oxy]cyclobutoxy]piperidine-1-carboxylate] | 2.5 to 10 | > 75
2 | Cc1ncsc1-c1ccc([C@H](C)NC(=O)[C@@H]2C[C@@H](O)CN2C(=O)C(c2cc(N3CCC(OC(=O)N4CCC(Oc5cc(N6CCN(c7cc(-c8ccccc8O)nnc7N)CC6)ccn5)CC4)CC3)no2)C(C)C)cc1 (stereo partly drawn) [Compound 144, 1-(5-{1-[(2S,4R)-4-hydroxy-2-{[(1S)-1-[4-(4-methyl-1,3-thiazol-5-yl)phenyl]ethyl]carbamoyl}pyrrolidin-1-yl]-3-methyl-1-oxobutan-2-yl}-1,2-oxazol-3-yl)piperidin-4-yl 4-[(4-{4-[3-amino-6-(2-hydroxyphenyl)pyridazin-4-yl]piperazin-1-yl}pyridin-2-yl)oxy]piperidine-1-carboxylate] | 2.5 to 10 | > 75
3 | Cc1ncsc1-c1ccc([C@H](C)NC(=O)[C@@H]2C[C@@H](O)CN2C(=O)[C@@H](c2cc(N3CCC(CN4CCC(O[C@H]5C[C@H](N6CCC(C(C)n7cc(/C=C/c8cc(-c9ccccc9O)nnc8N)cn7)CC6)C5)CC4)CC3)no2)C(C)C)cc1 (stereo partly drawn) [Compound 69, (2S,4R)-4-hydroxy-N-[(1S)-1-[4-(4-methyl-1,3-thiazol-5-yl)phenyl]ethyl]-1-[(2R)-3-methyl-2-{3-[4-({4-[(1r,3r)-3-[4-(1-{4-[(1E)-2-[3-amino-6-(2-hydroxyphenyl)pyridazin-4-yl]ethenyl]-1H-pyrazol-1-yl}ethyl)piperidin-1-yl]cyclobutoxy]piperidin-1-yl}methyl)piperidin-1-yl]-1,2-oxazol-5-yl}butanoyl]pyrrolidine-2-carboxamide] | < 2.5 | > 75
4 | Cc1ncsc1-c1ccc([C@H](C)NC(=O)[C@@H]2C[C@@H](O)CN2C(=O)[C@@H](c2cc(N3CCC(CN4CCC5(CC4)CC(N4CCO[C@H](C(C)(C)N6C7CCC6CN(c6cc(-c8ccccc8O)nnc6N)C7)C4)C5)CC3)no2)C(C)C)cc1 [Compound 94, (2S,4R)-1-[(2R)-2-{3-[4-({2-[(2S)-2-(2-{3-[3-amino-6-(2-hydroxyphenyl)pyridazin-4-yl]-3,8-diazabicyclo[3.2.1]octan-8-yl}propan-2-yl)morpholin-4-yl]-7-azaspiro[3.5]nonan-7-yl}methyl)piperidin-1-yl]-1,2-oxazol-5-yl}-3-methylbutanoyl]-4-hydroxy-N-[(1S)-1-[4-(4-methyl-1,3-thiazol-5-yl)phenyl]ethyl]pyrrolidine-2-carboxamide] | 2.5 to 10 | > 75
5 | CC(C)[C@@H](C(=O)N1C[C@H](O)C[C@H]1C(=O)N[C@@H](C)c1ccc(C#N)cc1)c1cc(N2CCC(OCCN3CCC(O[C@H]4C[C@H](Oc5cc(N6C7CCC6CN(c6cc(-c8ccccc8O)nnc6N)C7)ccn5)C4)CC3)CC2)no1 [Compound 153, (2S,4R)-N-[(1S)-1-(4-cyanophenyl)ethyl]-4-hydroxy-1-[(2R)-3-methyl-2-{3-[4-(2-{4-[(1r,3r)-3-[(4-{3-[3-amino-6-(2-hydroxyphenyl)pyridazin-4-yl]-3,8-diazabicyclo[3.2.1]octan-8-yl}pyridin-2-yl)oxy]cyclobutoxy]piperidin-1-yl}ethoxy)piperidin-1-yl]-1,2-oxazol-5-yl}butanoyl]pyrrolidine-2-carboxamide] | < 2.5 | > 75
6 | Cc1ncsc1-c1ccc([C@H](C)NC(=O)[C@@H]2C[C@@H](O)CN2C(=O)[C@@H](c2cc(N3CCC(CN4CCC5(CC4)CC(N4CCO[C@@H](C(C)(C)N6C7CCC6CN(c6cc(-c8ccccc8O)nnc6N)C7)C4)C5)CC3)no2)C(C)C)cc1 [Compound 95, (2S,4R)-1-[(2R)-2-{3-[4-({2-[(2R)-2-(2-{3-[3-amino-6-(2-hydroxyphenyl)pyridazin-4-yl]-3,8-diazabicyclo[3.2.1]octan-8-yl}propan-2-yl)morpholin-4-yl]-7-azaspiro[3.5]nonan-7-yl}methyl)piperidin-1-yl]-1,2-oxazol-5-yl}-3-methylbutanoyl]-4-hydroxy-N-[(1S)-1-[4-(4-methyl-1,3-thiazol-5-yl)phenyl]ethyl]pyrrolidine-2-carboxamide] | 2.5 to 10 | > 75
7 | Cc1ncsc1-c1ccc([C@H](C)NC(=O)[C@@H]2C[C@@H](O)CN2C(=O)[C@@H](c2cc(N3CCC(CN4CCC5(CC4)CC(N4CCO[C@H]([C@@H](C)n6cc(C#Cc7cc(-c8ccccc8O)nnc7N)cn6)C4)C5)CC3)no2)C(C)C)cc1 [Compound 98, (2S,4R)-1-[(2R)-2-{3-[4-({2-[(2S)-2-[(1R)-1-(4-{2-[3-amino-6-(2-hydroxyphenyl)pyridazin-4-yl]ethynyl}-1H-pyrazol-1-yl)ethyl]morpholin-4-yl]-7-azaspiro[3.5]nonan-7-yl}methyl)piperidin-1-yl]-1,2-oxazol-5-yl}-3-methylbutanoyl]-4-hydroxy-N-[(1S)-1-[4-(4-methyl-1,3-thiazol-5-yl)phenyl]ethyl]pyrrolidine-2-carboxamide] | < 2.5 | > 75
8 | Cc1ncsc1-c1ccc([C@H](C)NC(=O)[C@@H]2C[C@@H](O)CN2C(=O)[C@@H](c2cc(N3CCC(CN4CCC5(CC4)CC(C#CC(C)n4cc(-c6cc(-c7ccccc7O)nnc6N)cn4)C5)CC3)no2)C(C)C)cc1 (stereo partly drawn) [Compound 36, (2S,4R)-1-[(2R)-2-[3-(4-{[2-(3-{4-[3-amino-6-(2-hydroxyphenyl)pyridazin-4-yl]-1H-pyrazol-1-yl}but-1-yn-1-yl)-7-azaspiro[3.5]nonan-7-yl]methyl}piperidin-1-yl)-1,2-oxazol-5-yl]-3-methylbutanoyl]-4-hydroxy-N-[(1S)-1-[4-(4-methyl-1,3-thiazol-5-yl)phenyl]ethyl]pyrrolidine-2-carboxamide] | < 2.5 | > 75
9 | Cc1ncsc1-c1ccc([C@H](C)NC(=O)[C@@H]2C[C@@H](O)CN2C(=O)[C@@H](c2cc(N3CCC(CN4CCC(O[C@H]5C[C@H](N6CCC([C@H](C)c7cnn(-c8cc(-c9ccccc9O)nnc8N)c7)CC6)C5)CC4)CC3)no2)C(C)C)cc1 [Compound 75, (2S,4R)-4-hydroxy-N-[(1S)-1-[4-(4-methyl-1,3-thiazol-5-yl)phenyl]ethyl]-1-[(2R)-3-methyl-2-{3-[4-({4-[(1r,3r)-3-{4-[(1S)-1-{1-[3-amino-6-(2-hydroxyphenyl)pyridazin-4-yl]-1H-pyrazol-4-yl}ethyl]piperidin-1-yl}cyclobutoxy]piperidin-1-yl}methyl)piperidin-1-yl]-1,2-oxazol-5-yl}butanoyl]pyrrolidine-2-carboxamide] | < 2.5 | > 75
10 | Cc1ncsc1-c1ccc([C@H](C)NC(=O)[C@@H]2C[C@@H](O)CN2C(=O)[C@@H](c2cc(N3CCC(CN4CCC(O)(C#C[C@H]5C[C@H](Oc6cc(N7C8CCC7CN(c7cc(-c9ccccc9O)nnc7N)C8)ccn6)C5)CC4)CC3)no2)C(C)C)cc1 [Compound 19, (2S,4R)-4-hydroxy-1-[(2R)-2-(3-{4-[(4-hydroxy-4-{2-[(1r,3r)-3-[(4-{3-[3-amino-6-(2-hydroxyphenyl)pyridazin-4-yl]-3,8-diazabicyclo[3.2.1]octan-8-yl}pyridin-2-yl)oxy]cyclobutyl]ethynyl}piperidin-1-yl)methyl]piperidin-1-yl}-1,2-oxazol-5-yl)-3-methylbutanoyl]-N-[(1S)-1-[4-(4-methyl-1,3-thiazol-5-yl)phenyl]ethyl]pyrrolidine-2-carboxamide] | < 2.5 | > 75
11 | Cc1ncsc1-c1ccc([C@H](C)NC(=O)[C@@H]2C[C@@H](O)CN2C(=O)[C@@H](c2cc(N3CCC(CN4CCC(O[C@H]5C[C@H](N6CCC(O)(CN7C8CCC7CN(c7cc(-c9ccccc9O)nnc7N)C8)CC6)C5)CC4)CC3)no2)C(C)C)cc1 [Compound 11, (2S,4R)-4-hydroxy-N-[(1S)-1-[4-(4-methyl-1,3-thiazol-5-yl)phenyl]ethyl]-1-[(2R)-3-methyl-2-{3-[4-({4-[(1r,3r)-3-[4-({3-[3-amino-6-(2-hydroxyphenyl)pyridazin-4-yl]-3,8-diazabicyclo[3.2.1]octan-8-yl}methyl)-4-hydroxypiperidin-1-yl]cyclobutoxy]piperidin-1-yl}methyl)piperidin-1-yl]-1,2-oxazol-5-yl}butanoyl]pyrrolidine-2-carboxamide] | < 2.5 | > 75
12 | Cc1ncsc1-c1ccc([C@H](C)NC(=O)[C@@H]2C[C@@H](O)CN2C(=O)[C@@H](c2cc(N3CCC(CN4CCC(O[C@H]5C[C@H](CN6CCC(N7C8CCC7CN(c7cc(-c9ccccc9O)nnc7N)C8)CC6)C5)CC4)CC3)no2)C(C)C)cc1 [Compound 24, (2S,4R)-4-hydroxy-N-[(1S)-1-[4-(4-methyl-1,3-thiazol-5-yl)phenyl]ethyl]-1-[(2R)-3-methyl-2-{3-[4-({4-[(1r,3r)-3-[(4-{3-[3-amino-6-(2-hydroxyphenyl)pyridazin-4-yl]-3,8-diazabicyclo[3.2.1]octan-8-yl}piperidin-1-yl)methyl]cyclobutoxy]piperidin-1-yl}methyl)piperidin-1-yl]-1,2-oxazol-5-yl}butanoyl]pyrrolidine-2-carboxamide] | < 2.5 | > 75
